From US10160762B2, “6-alkyl dihydropyrazolopyrimidinone compounds as PDE2 inhibitors” (Merck Sharp & Dohme Corp., priority 2015, dated 2018)

target: T1, human PDE2A1 (Homo sapiens, UniProt O00408); test: IMAP FP PDE assay, human PDE2A1; assay type: biochemical; conditions: Lab B; read-out: Human PDE2 Ki (nM) Lab B
T1 construct: GST; purchased BPS Bioscience (San Diego, Calif.) 60020; host or cells: insect cells
Description: Selectivity for PDE2, as compared to other PDE families, was assessed using the IMAP® technology. Human PDE10A2 enzyme was prepared from cytosolic fractions of transiently transfected HEK cells. All other PDE's were GST Tag human enzyme expressed in insect cells and were obtained from BPS Bioscience (San Diego, Calif.): PDE1A (Cat#60010), human PDE2A1 (Cat#60020), PDE3A (Cat#60030), PDE4A1A (Cat#60040), PDE5A1 (Cat#60050), PDE6C (Cat#60060), PDE7A (Cat#60070), PDE8A1 (Cat#60080), PDE9A2 (Cat#60090), PDE11A4 (Cat#60110).
Assays for PDE 1 through 11 were performed in parallel at room temperature in 384-well microtiter plates with an incubation volume of 20.2 μL. Solutions of test compounds were prepared in DMSO and serially diluted with DMSO to yield 30 μL of each of ten solutions differing by 3-fold in concentration, at 32 serial dilutions per plate. […] A Labcyte POD 810 (Labcyte, Sunnyvale, Calif.) was used to dispense 200 nL from each well of the titration plate to make eleven copies of the assay plate for each titration, one copy for each PDE enzyme. A solution of each enzyme (dilution from aliquots, sufficient to produce 20% substrate conversion) and a separate solution of FAM-labeled cAMP or FAM-labeled cGMP from Molecular Devices (Sunnyvale, Calif., product # R7506 or cGMP#R7508), at a final concentration of 50 nM were made in the assay buffer (10 mM Tris HCl, pH 7.2, 10 mM MgCl2, 0.05% NaN3 0.01% Tween-20, and 1 mM DTT). Note that the substrate for PDE2 is 50 nM FAM cAMP containing 1000 nM of cGMP. The enzyme and the substrate were then added to the assay plates in two consecutive additions of 10 μL and then shaken to mix. The reaction was allowed to proceed at room temperature for 60 minutes. A binding solution was then made from the kit components, comprised of 80% Solution A, 20% Solution B and binding reagent at a volume of 1/600 the total binding solution. The enzymatic reaction was stopped by addition of 60 μL of the binding solution to each well of the assay plate. The plates were sealed and shaken for 10 seconds. The plates were incubated at room temperature for one hour, then the parallel and perpendicular fluorescence was measured using a Tecan Genios Pro plate reader (Tecan, Switzerland). The apparent inhibition constants for the compounds against all 11 PDE's was determined from the parallel and perpendicular fluorescent readings as described for PDE10 FP assay using the following apparent KM values for each enzyme and substrate combination: PDE1A (FAM cGMP) 70 nM, human PDE2A1 (FAM cAMP) 10,000 nM, PDE3A (FAM cAMP) 50 nM, PDE4A1A (FAM cAMP) 1500 nM, PDE5A1 (FAM cGMP) 400 nM, PDE6C (FAM cGMP) 700 nM, PDE7A (FAM cAMP) 150 nM, PDE8A1 (FAM cAMP) 50 nM, PDE9A2 (FAM cGMP) 60 nM, PDE10A2 (FAM cAMP) 150 nM, PDE11A4 (FAM cAMP) 1000 nM. The intrinsic PDE2 inhibitory activity of a compound which may be used in accordance with the present invention may be determined by these assays.

T1 sequence (O00408 1-920 isoform O00408-2): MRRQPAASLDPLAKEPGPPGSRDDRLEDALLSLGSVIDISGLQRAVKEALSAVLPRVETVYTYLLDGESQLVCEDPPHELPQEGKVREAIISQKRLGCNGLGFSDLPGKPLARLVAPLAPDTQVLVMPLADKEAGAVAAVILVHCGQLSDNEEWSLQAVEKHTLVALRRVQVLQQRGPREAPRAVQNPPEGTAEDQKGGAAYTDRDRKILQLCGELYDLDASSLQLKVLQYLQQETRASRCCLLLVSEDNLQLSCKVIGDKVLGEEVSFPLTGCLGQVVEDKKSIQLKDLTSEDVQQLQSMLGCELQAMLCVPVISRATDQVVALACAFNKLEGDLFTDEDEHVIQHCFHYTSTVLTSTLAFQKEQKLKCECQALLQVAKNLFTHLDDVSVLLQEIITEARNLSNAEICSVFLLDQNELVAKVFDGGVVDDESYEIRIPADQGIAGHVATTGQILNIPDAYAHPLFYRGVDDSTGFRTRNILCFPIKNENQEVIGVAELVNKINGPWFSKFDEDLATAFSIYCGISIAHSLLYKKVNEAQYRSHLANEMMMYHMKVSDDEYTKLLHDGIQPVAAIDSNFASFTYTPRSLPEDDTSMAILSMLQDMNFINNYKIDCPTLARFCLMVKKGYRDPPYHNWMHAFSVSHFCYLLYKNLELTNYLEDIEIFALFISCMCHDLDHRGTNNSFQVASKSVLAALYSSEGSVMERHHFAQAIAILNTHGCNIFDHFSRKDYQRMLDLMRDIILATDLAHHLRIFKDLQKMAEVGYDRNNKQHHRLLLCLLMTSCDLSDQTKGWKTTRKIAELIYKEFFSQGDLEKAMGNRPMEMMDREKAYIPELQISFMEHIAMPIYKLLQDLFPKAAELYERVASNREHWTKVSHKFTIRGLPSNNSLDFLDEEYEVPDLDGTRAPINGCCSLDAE

| Structure (SMILES) | Ki [nM] |
| --- | --- |
| Cc1nc2c(c(-c3ccco3)nn2C(C)c2ccc(C(F)(F)F)cc2)c(=O)[nH]1 (single isomer, unassigned) [Example 74, (R)- or (S)-3-(Furan-2-yl)-6-methyl-1-(1-(4-(trifluoromethyl)phenyl)ethyl)-1H-pyrazolo[3,4-d]pyrimidin-4(5H)-one] | 258 |
| Cc1nc2c(c(-c3ccco3)nn2C(C)c2ccc(C(F)(F)F)cc2)c(=O)[nH]1 (single isomer, unassigned) [Example 75, (S)- or (R)-3-(Furan-2-yl)-6-methyl-1-(1-(4-(trifluoromethyl)phenyl)ethyl)-1H-pyrazolo[3,4-d]pyrimidin-4(5H)-one] | 203 |
| Cc1nc2c(c(CO)nn2C(CC(F)(F)F)c2ccc(C(F)(F)F)cc2)c(=O)[nH]1 (single isomer, unassigned) [Example 96, (R)- or (S)-3-(Hydroxymethyl)-6-methyl-1-(3,3,3-trifluoro-1-(4-(trifluoromethyl)phenyl)propyl)-1H-pyrazolo[3,4-d]pyrimidin-4(5H)-one] | 16 |
| Cc1nc2c(c(CO)nn2C(CC(F)(F)F)c2ccc(C(F)(F)F)cc2)c(=O)[nH]1 (single isomer, unassigned) [Example 97, (S)- or (R)-3-(Hydroxymethyl)-6-methyl-1-(3,3,3-trifluoro-1-(4-(trifluoromethyl)phenyl)propyl)-1H-pyrazolo[3,4-d]pyrimidin-4(5H)-one] | 467 |
| Cc1nc2c(c(CO)nn2C(C)c2ccc(C(F)(F)C(F)(F)F)cc2)c(=O)[nH]1 (single isomer, unassigned) [Example 98, (R)- or (S)-3-(Hydroxymethyl)-6-methyl-1-(1-(4-(perfluoroethyl)phenyl)ethyl)-1H-pyrazolo[3,4-d]pyrimidin-4(5H)-one] | 591 |
| COCC(c1ccc(C(F)(F)F)cc1)n1nc(CO)c2c(=O)[nH]c(C)nc21 (single isomer, unassigned) [Example 100, (R)- or (S)-3-(Hydroxymethyl)-1-(2-methoxy-1-(4-(trifluoromethyl)phenyl)ethyl)-6-methyl-1H-pyrazolo[3,4-d]pyrimidin-4(5H)-one] | ~1670 |
| Cc1nc2c(c(CO)nn2C2CCc3cc(C(F)(F)F)ccc32)c(=O)[nH]1 (single isomer, unassigned) [Example 103, (S)- or (R)-3-(Hydroxymethyl)-6-methyl-1-(5-(trifluoromethyl)-2,3-dihydro-1H-inden-1-yl)-1H-pyrazolo[3,4-d]pyrimidin-4(5H)-one] | 19 |
| Cc1nc2c(c(CO)nn2C(C)c2ccc(C(F)(F)F)c(C)c2)c(=O)[nH]1 (single isomer, unassigned) [Example 106, (R)- or (S)-3-(Hydroxymethyl)-6-methyl-1-(1-(3-methyl-4-(trifluoromethyl)phenyl)ethyl)-1H-pyrazolo[3,4-d]pyrimidin-4(5H)-one] | 633 |
| Cc1nc2c(c(CO)nn2C(C)c2ccc(C(F)(F)F)cc2C)c(=O)[nH]1 (single isomer, unassigned) [Example 108, (R)- or (S)-3-(Hydroxymethyl)-6-methyl-1-(1-(2-methyl-4-(trifluoromethyl)phenyl)ethyl)-1H-pyrazolo[3,4-d]pyrimidin-4(5H)-one] | ~1280 |
| Cc1nc2c(c(CO)nn2C(C)c2ccc(C(F)(F)F)cc2C)c(=O)[nH]1 (single isomer, unassigned) [Example 109, (S)- or (R)-3-(Hydroxymethyl)-6-methyl-1-(1-(2-methyl-4-(trifluoromethyl)phenyl)ethyl)-1H-pyrazolo[3,4-d]pyrimidin-4(5H)-one] | 1.9 |
| Cc1nc2c(c(CO)nn2C(C)c2ccc(C(F)F)cc2)c(=O)[nH]1 (single isomer, unassigned) [Example 110, (R)- or (S)-1-(1-(4-(Difluoromethyl)phenyl)ethyl)-3-(hydroxymethyl)-6-methyl-1H-pyrazolo[3,4-d]pyrimidin-4(5H)-one] | 1070 |
| Cc1nc2c(c(CO)nn2C(C)c2ccc(C(F)F)cc2)c(=O)[nH]1 (single isomer, unassigned) [Example 111, (S)- or (R)-1-(1-(4-(Difluoromethyl)phenyl)ethyl)-3-(hydroxymethyl)-6-methyl-1H-pyrazolo[3,4-d]pyrimidin-4(5H)-one] | 3.2 |
| Cc1nc2c(c(CO)nn2C(C)c2ccc(OC(F)F)c(F)c2)c(=O)[nH]1 (single isomer, unassigned) [Example 112, (R)- or (S)-1-(1-(4-(Difluoromethoxy)-3-fluorophenyl)ethyl)-3-(hydroxymethyl)-6-methyl-1H-pyrazolo[3,4-d]pyrimidin-4(5H)-one] | 88 |

The remaining lines, values ahead:

| Ki [nM] | Structure (SMILES) |
| --- | --- |
| 423 | Cc1nc2c(c(C3CCCO3)nn2C(C)c2ccc(C(F)(F)F)cc2)c(=O)[nH]1 (single isomer, unassigned) [Example 73, (S, S)- or (S, R)- or (R, R)- or (R, S)-6-Methyl-3-(-tetrahydrofuran-2-yl)-1-(-l-(4-(trifluoromethyl)phenyl)ethyl)-1H-pyrazolo[3,4-d]pyrimidin-4(5H)-one] |
| 624 | Cc1nc2c(c(CO)nn2C(C)c2ccc(C3(C(F)(F)F)CC3)cc2)c(=O)[nH]1 (single isomer, unassigned) [Example 80] |
| 7.7 | Cc1nc2c(c(CO)nn2C(C)c2ccc(C3(C(F)(F)F)CC3)cc2)c(=O)[nH]1 (single isomer, unassigned) [Example 81] |
| 4.5 | Cc1nc2c(c(CO)nn2C(C)c2ccc(C(F)(F)C(F)(F)F)cc2)c(=O)[nH]1 (single isomer, unassigned) [Example 99, (S)- or (R)-3-(Hydroxymethyl)-6-methyl-1-(1-(4-(perfluoroethyl)phenyl)ethyl)-1H-pyrazolo[3,4-d]pyrimidin-4(5H)-one] |
| 13 | COCC(c1ccc(C(F)(F)F)cc1)n1nc(CO)c2c(=O)[nH]c(C)nc21 (single isomer, unassigned) [Example 101, (S)- or (R)-3-(Hydroxymethyl)-1-(2-methoxy-1-(4-(trifluoromethyl)phenyl)ethyl)-6-methyl-1H-pyrazolo[3,4-d]pyrimidin-4(5H)-one] |
| > 2960 | Cc1nc2c(c(CO)nn2C2CCc3cc(C(F)(F)F)ccc32)c(=O)[nH]1 (single isomer, unassigned) [Example 102, (R)- or (S)-3-(Hydroxymethyl)-6-methyl-1-(5-(trifluoromethyl)-2,3-dihydro-1H-inden-1-yl)-1H-pyrazolo[3,4-d]pyrimidin-4(5H)-one] |
| 162 | Cc1nc2c(c(CO)nn2C(C)c2ccc(OC(F)(F)F)cc2F)c(=O)[nH]1 (single isomer, unassigned) [Example 104, (R)- or (S)-1-(1-(2-Fluoro-4-(trifluoromethoxy)phenyl)ethyl)-3-(hydroxymethyl)-6-methyl-1H-pyrazolo[3,4-d]pyrimidin-4(5H)-one] |
| 1.9 | Cc1nc2c(c(CO)nn2C(C)c2ccc(OC(F)(F)F)cc2F)c(=O)[nH]1 (single isomer, unassigned) [Example 105, (S)- or (R)-1-(1-(2-Fluoro-4-(trifluoromethoxy)phenyl)ethyl)-3-(hydroxymethyl)-6-methyl-1H-pyrazolo[3,4-d]pyrimidin-4(5H)-one] |
| 4.5 | Cc1nc2c(c(CO)nn2C(C)c2ccc(C(F)(F)F)c(C)c2)c(=O)[nH]1 (single isomer, unassigned) [Example 107, (S)- or (R)-3-(Hydroxymethyl)-6-methyl-1-(1-(3-methyl-4-(trifluoromethyl)phenyl)ethyl)-1H-pyrazolo[3,4-d]pyrimidin-4(5H)-one] |
| 3 | Cc1nc2c(c(CO)nn2C(C)c2ccc(OC(F)F)c(F)c2)c(=O)[nH]1 (single isomer, unassigned) [Example 113, (S)- or (R)-1-(1-(4-(Difluoromethoxy)-3-fluorophenyl)ethyl)-3-(hydroxymethyl)-6-methyl-1H-pyrazolo[3,4-d]pyrimidin-4(5H)-one] |
